Laboratory results published in ChEMBL document CHEMBL1154845, “Neocomplanines A and B, a complanine family isolated from the marine fireworm” (J Nat Prod, 2010).
Activity calls are given as the source filed them. The rule behind the calls is not given here.

Experiments:
[1] = system: Mus musculus; assay: Toxicity in sc dosed mouse assessed as foot-pad swelling over 5 hrs relative to control; assay type: organism-based; conditions: in vivo
[2] = Activation of PKC assessed as [gamma32P] incorporation at 2 mM after 15 mins by scintillation counting in presence of TPA
[3] = Activation of PKC assessed as [gamma32P] incorporation after 15 mins by scintillation counting in presence of TPA
[4] = Activation of PKC assessed as [gamma32P] incorporation at greater than 0.5 mM after 15 mins by scintillation counting in presence of Ca2+

SMILES | Activity [1] | Activity [2] [pmol/min] | Activity [3] | Activity [4]
CC/C=C\C/C=C\CC[C@@H](O)CNC(=O)CCC[N+](C)(C)C.[I-] [COMPLANINE] | Toxic | 10.9 |  | 
CC(C)CCCCC(O)CNC(=O)CCC[N+](C)(C)C.[I-] (stereo not drawn) [NEOCOMPLANINE A] | Toxic |  | Dose-dependent effect | Active
CCCCCCCC(O)CNC(=O)CCC[N+](C)(C)C.[I-] (stereo not drawn) [NEOCOMPLANINE B] | Toxic |  | Dose-dependent effect | Active
